Assay results taken from PubChem BioAssay AID179 (DTP/NCI, 2004).
“And” between values parts separate entries of the source, which are not always exact repeats. Equal entries are not always repeated. The source made the active and inactive calls.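 The calls were made as follows: active = compounds giving half or more protection of infected cells from virus-caused growth loss, again on retest; inactive = the rest.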 Where a SMILES comes first, the peptide text is derived from it. The star is where a group is joined. Fmoc = O=C(OCC1c2ccccc2-c2ccccc21)*; Boc = CC(C)(C)OC(=O)*; OtBu = CC(C)(C)O*

System: CEM cells HIV-1 protection, formazan growth assay
Assay: NCI AIDS Antiviral Assay
Settings: for IC50: measured here: growth of uninfected CEM cells
Summary of the method: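 Soluble formazan readout of cell growth; CEM cells ± HIV-1; 5 drug concs. ≥50% protection → retest; ≥50% again = moderately active; reproducible 100% = confirmed active.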

SMILES: COc1ccc2c(c1)-c1nc(=S)n(CCN(C)C)c3ccc([N+](=O)[O-])c(c13)N2
- EC50: > 2 µM
- IC50: 0.389 µM

SMILES: O=C(CCCN1CCC2(CC1)C(=O)NC(=O)N2c1ccccc1)c1ccc(F)cc1
- EC50: > 200 µM
- IC50: > 200 µM

SMILES: CC(NC(=O)OC(C)(C)C)C(=O)C(N)=O (centres undefined)
- EC50: > 200 µM
- IC50: > 200 µM

SMILES: O=C1OC2(OC2c2ccc(Cl)cc2)c2ccccc21 (centres undefined)
- EC50: > 69.2 µM
- IC50: > 69.2 µM

SMILES: CCOC(=O)c1ccc(N=NC2Sc3nc4ccccc4n3C2=O)cc1 (centres undefined)
- outcome: inactive

SMILES: O=C(Nc1ccc(C2=NCCN2)cc1)C1CCC(C(=O)Nc2ccc(C3=NCCN3)cc2)CC1 (centres undefined)
- EC50: > 200 µM
- IC50: 11 µM

SMILES: CCCCCCN(CCCCCC)/N=C/c1c2c(O)c3c(O)c(C)c4c(c3c1O)C(=O)C(C)(O/C=C/C(OC)C(C)C(OC(C)=O)C(C)C(O)C(C)C(O)C(C)/C=C/C=C(C)C(=O)N2)O4 (centres undefined)
- outcome: inactive

SMILES: N#CC(C#N)=Cc1ccc(F)cc1
- EC50: > 79.4 µM
- IC50: > 79.4 µM

SMILES: CC1CC2C3CC(F)C4=CC(=O)C=CC4(C)C3(F)C(O)CC2(C)C1(O)C(=O)COC(=O)C(C)(C)C (centres undefined)
- outcome: inactive

SMILES: CCC1OC2C(CC=C(C)C)=C3OC(C)(O)C(C)(CC)C(O)C3=C3OC(=O)C=C1C32 (centres undefined)
- EC50: > 200 µM
- IC50: 30.9 µM

SMILES: O=CC(=C(I)I)c1ccccc1
- EC50: > 2 µM
- IC50: 1.05 µM

SMILES: Cc1cccc(-c2nnc(-c3nn(-c4ccccc4)c4nc5ccccc5nc34)o2)c1
- EC50: > 38.9 µM
- IC50: 19.5 µM

SMILES: Cc1cccc(C)c1NC(=S)NC=C(C(N)=O)C(N)=O
- EC50: > 200 µM
- IC50: > 200 µM

SMILES: CC1=C/C(=C2/N=C(N(C)C)SS2)C(C)=N1
- outcome: inactive

SMILES: CCOC(=O)[C@@H]1ON2O[C@@H](OC3CCCC3(c3ccccc3)c3ccccc3)C[C@H]3OC(=O)[C@@H]1C32 (some centres undefined)
- EC50: > 200 µM
- IC50: 34.7 µM

SMILES: NC(=O)c1ccccc1NC(=O)C(=O)Nc1n[nH]c(N)n1
- EC50: > 871 µM
- IC50: > 871 µM

SMILES: O=C(NCCc1ccccc1)[C@H]1CCCC[C@@H]1CCO
- EC50: > 200 µM
- IC50: > 200 µM

SMILES: Cc1ccc2c(c1)[nH]c(=S)n2C=C1C(=O)NC(=O)NC1=O
- EC50: > 100 µM
- IC50: > 100 µM

SMILES: CC(C)(C)OC(=O)CCC(NC(=O)OCC1c2ccccc2-c2ccccc21)C(=O)NC(Cc1c[nH]c2ccccc12)C(=O)NC(CCCCNC(=O)OC(C)(C)C)C(=O)N1CCCC1C(=O)NCC(N)=O (centres undefined) (Fmoc-E(OtBu)WK(Boc)PG-NH2; configuration not given here)
- EC50: > 100 µM
- IC50: > 100 µM and 44.7 µM

SMILES: Cc1ccc(/C=C2/N=C(N/N=C\C(O)C(O)C(O)CO)NC2=O)cc1 (centres undefined)
- EC50: > 200 µM
- outcome: inactive
- IC50: 110 µM

SMILES: Nc1nc(-c2ccco2)cc(-c2ccco2)n1
- EC50: > 115 µM
- IC50: > 115 µM

SMILES: CCOC(=O)c1sc(SC)nc1N
- EC50: > 200 µM
- IC50: > 200 µM

SMILES: CC(=O)Nc1cccc(N2C(=O)/C(=C\c3cccc(Oc4ccccc4)c3)S(=O)(=O)C2c2ccccc2)c1 (centres undefined)
- EC50: > 200 µM
- IC50: 34.7 µM

SMILES: Clc1cc(Cl)c(OCC#CI)cc1Cl
- EC50: > 200 µM
- IC50: 6.92 µM

SMILES: Cc1ccc(C(=O)O)cc1S(=O)(=O)Nn1cnc2ccc(S(=O)(=O)Nc3ccccc3C(=O)O)cc2c1=O
- EC50: > 200 µM
- IC50: > 200 µM

SMILES: COC(=O)C1Cc2c([nH]c3ccccc23)C=N1 (centres undefined)
- outcome: inactive

SMILES: CCOC(=O)C(NCc1cccc(C(F)(F)F)c1)(NC(=O)c1ccccc1)C(F)(F)F (centres undefined)
- EC50: > 200 µM
- IC50: 18.6 µM

SMILES: CCOC(=O)C(=O)Nc1cc(Cl)ccc1Cl
- EC50: > 363 µM
- IC50: > 363 µM

SMILES: C=C1CCC2C(C)(CO)C(O)CCC2(C)C1C/C=C1/CCOC1=O (centres undefined)
- outcome: inactive

SMILES: CC(NC(=O)C(N)CC(=O)O)C(=O)OC12CC3CC(CC(C3)C1)C2 (centres undefined)
- EC50: > 200 µM
- IC50: > 200 µM

SMILES: CCC[CH2][Sn]1([CH2]CCC)[O]C(=O)C2C(C(=O)[O]1)C1(Cl)C(Cl)=C(Cl)C2(Cl)C1(Cl)Cl (centres undefined)
- EC50: > 200 µM
- IC50: 0.182 µM

SMILES: CC(=O)OCCCOCn1c(Cc2ccccc2)c(C(C)C)c(=O)[nH]c1=O
- EC50: 0.0794 µM
- IC50: 89.1 µM

SMILES: COC1/C=C/OC2(C)Oc3c(C)c(O)c4c(O)c(cc(OCC(=O)N(C)C(C)C)c4c3C2=O)NC(=O)/C(C)=C/C=C/C(C)C(O)C(C)C(O)C(C)C(OC(C)=O)C1C (centres undefined)
- EC50: > 200 µM
- IC50: 38 µM

SMILES: C=C(CBr)CCCOCc1ccccc1
- EC50: > 200 µM
- IC50: 105 µM

SMILES: Cc1nnc2c3nccnc3c(Cl)nn12
- EC50: > 200 µM
- IC50: 2.34 µM

SMILES: N#Cc1ccc(N2CCOCC2)cc1
- EC50: 195 µM
- IC50: > 200 µM

SMILES: CCCCCCCCCCCCOC(=S)NC
- outcome: inactive

SMILES: CS/C1=C(\c2ccc(C)cc2)N(c2ccccc2)C(=O)C(=O)N(c2ccccc2)/C(c2ccc(C)cc2)=C(/SC)SS1
- EC50: > 200 µM
- IC50: 47.9 µM

SMILES: O=S(=O)(Nc1nnc2c3ccccc3cnn12)c1ccc(Cl)cc1S
- EC50: 36.3 µM
- IC50: 490 µM

SMILES: Cc1cc2n([O-])cccc-2[n+](=O)c1
- EC50: > 200 µM
- IC50: > 200 µM
